From publication PMC3796545, “Protein-Protein Interactions as a Strategy towards Protein-Specific Drug Design: The Example of Ataxin-1” (PLoS ONE, 2013)
Peptide text beside a SMILES is read from it.

T1: ATX1 AXH (residues A567–K689 of human ATX1) (Homo sapiens, UniProt P54253)
T1 construct: Recombinant ATX1 AXH (residues A567–K689 of human ATX1); His6-GST (N, cleaved yes); made in house; host or cells: E. coli BL21(DE3)pLysS
T1 sequence (P54253 566-688 limits assumed): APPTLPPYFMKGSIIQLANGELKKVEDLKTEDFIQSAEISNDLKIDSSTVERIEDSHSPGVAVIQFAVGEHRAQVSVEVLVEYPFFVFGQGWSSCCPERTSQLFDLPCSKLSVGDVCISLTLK

T2: ATX1 AXH (residues A567-K689 of human ATX1) (human)
T2 chain: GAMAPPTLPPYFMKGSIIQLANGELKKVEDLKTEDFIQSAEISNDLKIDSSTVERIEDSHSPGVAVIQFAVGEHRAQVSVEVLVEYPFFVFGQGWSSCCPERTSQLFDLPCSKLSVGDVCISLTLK


Target: T1, ATX1 AXH (residues A567–K689 of human ATX1)
Experiment: ITC binding of CIC peptides to ATX1 AXH
Settings: 25°C, 50 mM Tris-HCl pH 7, 50 mM NaCl, 2 mM TCEP, 0.041 mM AXH in cell, 0.410 mM peptide in syringe, averages of three measurements, read-out: dissociation constant (Kd)
Description: Binding affinities of AXH with CIC ligands were measured at 25°C by a MicroCal Omega VP-ITC (MicroCal Inc., Northampton, USA). Both protein and peptides buffers were 50 mM Tris-HCl pH 7, 50 mM NaCl, 2 mM TCEP. Solutions of 0.041 mM AXH in the cell were titrated by injections of a total of 283 µl of 0.410 mM peptide in the syringe in 21 aliquots. Data were processed with the software MicroCal Origin version 5.0 provided by the manufacturer. All dissociation constants were averages of three measurements.

Kd	Molecule
50 nM	CC(C)C[C@H](NC(=O)[C@H](Cc1ccccc1)NC(=O)[C@@H]1CCCN1C(=O)[C@@H](NC(=O)[C@H](CC(C)C)NC(=O)[C@H](CO)NC(=O)[C@H](C)NC(=O)[C@H](Cc1c[nH]c2ccccc12)NC(=O)[C@@H]1CCCN1C(=O)[C@H](Cc1ccccc1)NC(=O)[C@@H](N)C(C)C)C(C)C)C(=O)N[C@@H](C)C(=O)N1CCC[C@H]1C(=O)N[C@@H](CO)C(=O)N[C@@H](CCC(N)=O)C(=O)O [H38] (H-VFPWASLVPFLAPSQ-OH)
8000 nM	CC(C)C[C@H](NC(=O)[C@H](Cc1ccccc1)NC(=O)[C@@H]1CCCN1C(=O)[C@@H](NC(=O)[C@H](CC(C)C)NC(=O)[C@H](CO)NC(=O)[C@H](Cc1c[nH]cn1)NC(=O)[C@H](Cc1c[nH]c2ccccc12)NC(=O)[C@@H]1CCCN1)C(C)C)C(=O)N[C@@H](C)C(=O)N1CCC[C@H]1C(=O)N[C@@H](CO)C(=O)N[C@@H](CCC(N)=O)C(=O)O [CICp] (H-PWHSLVPFLAPSQ-OH)
20 nM	CC(C)C[C@H](NC(=O)[C@H](Cc1ccccc1)NC(=O)[C@@H]1CCCN1C(=O)[C@@H](NC(=O)[C@H](CC(C)C)NC(=O)[C@H](CO)NC(=O)[C@H](Cc1c[nH]cn1)NC(=O)[C@H](Cc1c[nH]c2ccccc12)NC(=O)[C@@H]1CCCN1C(=O)[C@H](Cc1ccccc1)NC(=O)[C@H](C)N)C(C)C)C(=O)N[C@@H](C)C(=O)N1CCC[C@H]1C(=O)N[C@@H](CO)C(=O)N[C@@H](CCC(N)=O)C(=O)O [V34] (H-AFPWHSLVPFLAPSQ-OH)
40 nM	CC(C)C[C@H](NC(=O)[C@H](Cc1ccccc1)NC(=O)[C@@H]1CCCN1C(=O)[C@@H](NC(=O)[C@H](CC(C)C)NC(=O)[C@H](CO)NC(=O)[C@H](Cc1c[nH]cn1)NC(=O)[C@H](Cc1c[nH]c2ccccc12)NC(=O)[C@H](C)NC(=O)[C@H](Cc1ccccc1)NC(=O)[C@@H](N)C(C)C)C(C)C)C(=O)N[C@@H](C)C(=O)N1CCC[C@H]1C(=O)N[C@@H](CO)C(=O)N[C@@H](CCC(N)=O)C(=O)O [P36] (H-VFAWHSLVPFLAPSQ-OH)
60 nM	CC(C)C[C@H](NC(=O)[C@H](C)NC(=O)[C@@H]1CCCN1C(=O)[C@@H](NC(=O)[C@H](CC(C)C)NC(=O)[C@H](CO)NC(=O)[C@H](Cc1c[nH]cn1)NC(=O)[C@H](Cc1c[nH]c2ccccc12)NC(=O)[C@@H]1CCCN1C(=O)[C@H](Cc1ccccc1)NC(=O)[C@@H](N)C(C)C)C(C)C)C(=O)N[C@@H](C)C(=O)N1CCC[C@H]1C(=O)N[C@@H](CO)C(=O)N[C@@H](CCC(N)=O)C(=O)O [F43] (H-VFPWHSLVPALAPSQ-OH)
2600 nM	CC(C)C[C@H](NC(=O)[C@H](Cc1ccccc1)NC(=O)[C@@H]1CCCN1C(=O)[C@@H](NC(=O)[C@H](CC(C)C)NC(=O)[C@H](CO)NC(=O)[C@H](Cc1c[nH]cn1)NC(=O)[C@H](C)NC(=O)[C@@H]1CCCN1C(=O)[C@H](Cc1ccccc1)NC(=O)[C@@H](N)C(C)C)C(C)C)C(=O)N[C@@H](C)C(=O)N1CCC[C@H]1C(=O)N[C@@H](CO)C(=O)N[C@@H](CCC(N)=O)C(=O)O [W37] (H-VFPAHSLVPFLAPSQ-OH)
50 nM	CC(C)C[C@H](NC(=O)[C@H](CO)NC(=O)[C@H](Cc1c[nH]cn1)NC(=O)[C@H](Cc1c[nH]c2ccccc12)NC(=O)[C@@H]1CCCN1C(=O)[C@H](Cc1ccccc1)NC(=O)[C@@H](N)C(C)C)C(=O)N[C@H](C(=O)N1CCC[C@H]1C(=O)N[C@@H](Cc1ccccc1)C(=O)N[C@@H](C)C(=O)N[C@@H](C)C(=O)N1CCC[C@H]1C(=O)N[C@@H](CO)C(=O)N[C@@H](CCC(N)=O)C(=O)O)C(C)C [L44] (H-VFPWHSLVPFAAPSQ-OH)
70 nM	CC(C)C[C@H](NC(=O)[C@H](Cc1ccccc1)NC(=O)[C@@H]1CCCN1C(=O)[C@H](C)NC(=O)[C@H](CC(C)C)NC(=O)[C@H](CO)NC(=O)[C@H](Cc1c[nH]cn1)NC(=O)[C@H](Cc1c[nH]c2ccccc12)NC(=O)[C@@H]1CCCN1C(=O)[C@H](Cc1ccccc1)NC(=O)[C@@H](N)C(C)C)C(=O)N[C@@H](C)C(=O)N1CCC[C@H]1C(=O)N[C@@H](CO)C(=O)N[C@@H](CCC(N)=O)C(=O)O [V41] (H-VFPWHSLAPFLAPSQ-OH)
30 nM	CC(C)C[C@H](NC(=O)[C@H](Cc1ccccc1)NC(=O)[C@@H]1CCCN1C(=O)[C@@H](NC(=O)[C@H](CC(C)C)NC(=O)[C@H](CO)NC(=O)[C@H](Cc1c[nH]cn1)NC(=O)[C@H](Cc1c[nH]c2ccccc12)NC(=O)[C@@H]1CCCN1C(=O)[C@H](C)NC(=O)[C@@H](N)C(C)C)C(C)C)C(=O)N[C@@H](C)C(=O)N1CCC[C@H]1C(=O)N[C@@H](CO)C(=O)N[C@@H](CCC(N)=O)C(=O)O [F35] (H-VAPWHSLVPFLAPSQ-OH)
30 nM	CC(C)C[C@H](NC(=O)[C@H](Cc1ccccc1)NC(=O)[C@@H]1CCCN1C(=O)[C@@H](NC(=O)[C@H](CC(C)C)NC(=O)[C@H](CO)NC(=O)[C@H](Cc1c[nH]cn1)NC(=O)[C@H](Cc1c[nH]c2ccccc12)NC(=O)[C@@H]1CCCN1C(=O)[C@H](Cc1ccccc1)NC(=O)[C@@H](N)C(C)C)C(C)C)C(=O)N[C@@H](C)C(=O)N1CCC[C@H]1C(=O)N[C@@H](CO)C(=O)N[C@@H](CCC(N)=O)C(=O)O [L-CICp] (H-VFPWHSLVPFLAPSQ-OH)
500 nM	CC(C)C[C@H](NC(=O)[C@H](Cc1ccccc1)NC(=O)[C@@H]1CCCN1C(=O)[C@@H](NC(=O)[C@H](C)NC(=O)[C@H](CO)NC(=O)[C@H](Cc1c[nH]cn1)NC(=O)[C@H](Cc1c[nH]c2ccccc12)NC(=O)[C@@H]1CCCN1C(=O)[C@H](Cc1ccccc1)NC(=O)[C@@H](N)C(C)C)C(C)C)C(=O)N[C@@H](C)C(=O)N1CCC[C@H]1C(=O)N[C@@H](CO)C(=O)N[C@@H](CCC(N)=O)C(=O)O [L40] (H-VFPWHSAVPFLAPSQ-OH)
20 nM	CC(C)C[C@H](NC(=O)[C@H](Cc1ccccc1)NC(=O)[C@@H]1CCCN1C(=O)[C@@H](NC(=O)[C@H](CC(C)C)NC(=O)[C@H](CO)NC(=O)[C@H](Cc1c[nH]cn1)NC(=O)[C@H](Cc1c[nH]c2ccccc12)NC(=O)[C@@H]1CCCN1C(=O)[C@H](Cc1ccccc1)NC(=O)[C@@H](N)C(C)C)C(C)C)C(=O)N[C@@H](C)C(=O)N[C@@H](C)C(=O)N[C@@H](CO)C(=O)N[C@@H](CCC(N)=O)C(=O)O [P46] (H-VFPWHSLVPFLAASQ-OH)
20 nM	CC(C)C[C@H](NC(=O)[C@H](Cc1ccccc1)NC(=O)[C@@H]1CCCN1C(=O)[C@@H](NC(=O)[C@H](CC(C)C)NC(=O)[C@H](CO)NC(=O)[C@H](Cc1c[nH]cn1)NC(=O)[C@H](Cc1c[nH]c2ccccc12)NC(=O)[C@@H]1CCCN1C(=O)[C@H](Cc1ccccc1)NC(=O)[C@@H](N)C(C)C)C(C)C)C(=O)NCC(=O)N1CCC[C@H]1C(=O)N[C@@H](CO)C(=O)N[C@@H](CCC(N)=O)C(=O)O [A45] (H-VFPWHSLVPFLGPSQ-OH)
40 nM	CC(C)C[C@H](NC(=O)[C@H](Cc1ccccc1)NC(=O)[C@H](C)NC(=O)[C@@H](NC(=O)[C@H](CC(C)C)NC(=O)[C@H](CO)NC(=O)[C@H](Cc1c[nH]cn1)NC(=O)[C@H](Cc1c[nH]c2ccccc12)NC(=O)[C@@H]1CCCN1C(=O)[C@H](Cc1ccccc1)NC(=O)[C@@H](N)C(C)C)C(C)C)C(=O)N[C@@H](C)C(=O)N1CCC[C@H]1C(=O)N[C@@H](CO)C(=O)N[C@@H](CCC(N)=O)C(=O)O [P42] (H-VFPWHSLVAFLAPSQ-OH)

Molecule	Kd
CC(C)C[C@H](NC(=O)[C@H](C)NC(=O)[C@H](Cc1c[nH]cn1)NC(=O)[C@H](Cc1c[nH]c2ccccc12)NC(=O)[C@@H]1CCCN1C(=O)[C@H](Cc1ccccc1)NC(=O)[C@@H](N)C(C)C)C(=O)N[C@H](C(=O)N1CCC[C@H]1C(=O)N[C@@H](Cc1ccccc1)C(=O)N[C@@H](CC(C)C)C(=O)N[C@@H](C)C(=O)N1CCC[C@H]1C(=O)N[C@@H](CO)C(=O)N[C@@H](CCC(N)=O)C(=O)O)C(C)C [S39] (H-VFPWHALVPFLAPSQ-OH)	10 nM

Same assay, conditions: 25°C, 50 mM Tris-HCl pH 7, 50 mM NaCl, 2 mM TCEP, averages of three measurements, read-out: dissociation constant (Kd)

Kd	Molecule
~33 nM	CC(C)C[C@H](NC(=O)[C@H](Cc1ccccc1)NC(=O)[C@@H]1CCCN1C(=O)[C@@H](NC(=O)[C@H](CC(C)C)NC(=O)[C@H](CO)NC(=O)[C@H](Cc1c[nH]cn1)NC(=O)[C@H](Cc1c[nH]c2ccccc12)NC(=O)[C@@H]1CCCN1C(=O)[C@H](Cc1ccccc1)NC(=O)[C@@H](N)C(C)C)C(C)C)C(=O)N[C@@H](C)C(=O)N1CCC[C@H]1C(=O)N[C@@H](CO)C(=O)N[C@@H](CCC(N)=O)C(=O)O [L-CICp] (H-VFPWHSLVPFLAPSQ-OH)

Target: T2, ATX1 AXH (residues A567-K689 of human …)
Experiment: ITC
Settings: not given

Kd	Molecule
40 nM	VFPWHSLVAFLAPSQ [L-CICp with P42 mutated to alanine]
30 nM	VAPWHSLVPFLAPSQ [L-CICp with F35 mutated to alanine]
50 nM	VFPWASLVPFLAPSQ [L-CICp with H38 mutated to alanine]
10 nM	VFPWHALVPFLAPSQ [L-CICp with S39 mutated to alanine]
20 nM	VFPWHSLVPFLAASQ [L-CICp with P46 mutated to alanine]
20 nM	AFPWHSLVPFLAPSQ [L-CICp with V34 mutated to alanine]
40 nM	VFAWHSLVPFLAPSQ [L-CICp with P36 mutated to alanine]
70 nM	VFPWHSLAPFLAPSQ [L-CICp with V41 mutated to alanine]
50 nM	VFPWHSLVPFAAPSQ [L-CICp with L44 mutated to alanine]
60 nM	VFPWHSLVPALAPSQ [L-CICp with F43 mutated to alanine]
